Patent publication US20130150377A1, “Tetrahydropyridinyl and Dihydropyrrolyl Compounds and the Use Thereof” (SHIONOGI & CO., LTD., priority 2008, published 2013)

Key:
[1] = biological target: T1, N-type calcium channel (NTCC) (Homo sapiens, UniProt Q00975); test: FLIPR calcium mobilization assay for N-type calcium channel (differentiated IMR32 cells); assay type: cell-based; settings: N-type calcium channel blockers, calcium mobilization in vitro assay
T1 construct: endogenous in cells; host or cells: differentiated IMR32 cells (ATCC)
Method: Cell maintenance and differentiation. Unless noted otherwise, cell culture reagents were purchased from Mediatech of Herndon, Md. IMR32 cells (American Type Culture Collection, ATCC, Manassas, Va.) were routinely cultured in growth medium consisting of minimum essential medium containing 10% fetal bovine serum (FBS, Hyclone, Logan, Utah), 100 U/mL penicillin, 100 μg/mL streptomycin, 2 mM L-glutamine, 1 mM sodium pyruvate, and 1×MEM non-essential amino acids. 80-90% confluent flasks of cells were differentiated using the following differentiation medium: Growth medium plus 1 mM dibutyryl cyclic AMP (Sigma, St. Louis, Mo.), and 2.5 μM bromodeoxyuridine (Sigma). Cells were differentiated for 8 days by replacing differentiation medium every 2-3 days.
FLIPR Calcium Mobilization Assay for N-type Calcium Channel.
One day prior to performing this assay, differentiated IMR32 cells were treated with 1× CellStripper, and seeded on poly-D-lysine-coated 96-well clear-bottom black plates (Becton Dickinson, Franklin Lakes, N.J.) at 200,000 cells/well. On the day of the assay, the cell plates were washed with IMR32 buffer (127 mM NaCl, 1 mM KCl, 2 mM MgCl2, 700 μM NaH2PO4, 5 mM CaCl2, 5 mM NaHCO3, 8 mM HEPES, 10 mM glucose, pH 7.4), then pre-stimulated with KCl and loaded as follows: […] of IMR32 buffer, 0.05 mL of each compound tested diluted in IMR32 buffer containing 20 μM nitrendipine (Sigma), and 0.1 mL KCl dissolved in IMR32 buffer, plus Fluo-4 were added (3 μM final concentration, Molecular Probes, Eugene, Oreg.). Final test compound concentrations ranged from about 846 pM to about 17 μM, final nitrendipine concentration was 5 μM, and final KCl concentration was 90 mM. After 1 hour, the cells were washed twice with 0.05 mL of each compound tested in nitrendipine-containing IMR32 buffer (no KCl or Fluo-4), and then replaced with 0.1 mL of each compound tested in nitrendipine-containing IMR32 buffer. Plates were then transferred to a Fluorimetric Imaging Plate Reader (FLIPR^96, Molecular Devices, Inc., Sunnyvale, Calif.) for assay. The FLIPR measured basal Fluo-4 fluorescence for 315 seconds (i.e., 5 minutes and 15 seconds), then added 0.1 mL KCl agonist dissolved in IMR32 buffer and measured fluorescence for another 45 seconds. Final test compound concentrations on the cells after FLIPR read ranged from about 846 pM to about 17 μM, final nitrendipine concentration was 5 μM, and final KCl concentration was 90 mM. Data were collected over the entire time course and analyzed using Excel, Graph Pad Prism (version 3.02, Graph Pad, San Diego, Calif.), or an in-house non-linear regression analysis software.

[2] = biological target: T2, L-type calcium channel (LTCC) subunits (α1c, α2δ, and β1) (Rattus norvegicus, UniProt P22002); test: FLIPR calcium mobilization assay for L-type calcium channel (HEK293 cells expressing recombinant LTCC subunits); assay type: cell-based; settings: calcium mobilization assay for L-type calcium channel blocking activity
T2 construct: expressed in transfected cells; pcDNA6.2DEST α1c, pcDNA3.2DEST β1, pcDNA3.1-Zeo α2δ)
Method: Recombinant human embryonal kidney cells (HEK293, ATCC) stably transfected with either N-type calcium channel (NTCC) subunits (α1b, α28, and β3) or L-type calcium channel (LTCC) subunits (α1c, α2δ, and […]) were routinely cultured in growth medium consisting of Dulbecco's Modified Eagles Medium containing 10% FBS, 100 U/mL penicillin, 100 μg/mL streptomycin, 4 mM L-glutamine, 500 μg/mL geneticin (G418), 20 μg/mL Blasticidin S (InVivogen, San Diego, Calif.) and 500 μg/mL zeocin (InVivogen).
FLIPR Calcium Mobilization Assay for L-type Calcium Channel.
One day prior to performing this assay, HEK293 cells stably expressing recombinant rat L-type calcium channel (LTCC) subunits (α1c, α2δ, and β1) were trypsinized, then seeded on poly-D-lysine-coated 96-well clear-bottom black plates (Becton Dickinson, Franklin Lakes, N.J.) at 75,000 cells/well. […] The FLIPR measured basal Fluo-4 fluorescence for 15 seconds, then added 0.05 mL of each compound tested diluted in LTCC assay buffer at final concentrations ranging from about 846 pM to about 17 μM. Fluo-4 fluorescence was then measured for 5 minutes. 0.1 mL KCl agonist dissolved in LTCC assay buffer was, then added to the cells to produce a final concentration of 90 mM KCl, and fluorescence was measured for another 45 seconds. […]

T2 sequence (P22002 whole entry): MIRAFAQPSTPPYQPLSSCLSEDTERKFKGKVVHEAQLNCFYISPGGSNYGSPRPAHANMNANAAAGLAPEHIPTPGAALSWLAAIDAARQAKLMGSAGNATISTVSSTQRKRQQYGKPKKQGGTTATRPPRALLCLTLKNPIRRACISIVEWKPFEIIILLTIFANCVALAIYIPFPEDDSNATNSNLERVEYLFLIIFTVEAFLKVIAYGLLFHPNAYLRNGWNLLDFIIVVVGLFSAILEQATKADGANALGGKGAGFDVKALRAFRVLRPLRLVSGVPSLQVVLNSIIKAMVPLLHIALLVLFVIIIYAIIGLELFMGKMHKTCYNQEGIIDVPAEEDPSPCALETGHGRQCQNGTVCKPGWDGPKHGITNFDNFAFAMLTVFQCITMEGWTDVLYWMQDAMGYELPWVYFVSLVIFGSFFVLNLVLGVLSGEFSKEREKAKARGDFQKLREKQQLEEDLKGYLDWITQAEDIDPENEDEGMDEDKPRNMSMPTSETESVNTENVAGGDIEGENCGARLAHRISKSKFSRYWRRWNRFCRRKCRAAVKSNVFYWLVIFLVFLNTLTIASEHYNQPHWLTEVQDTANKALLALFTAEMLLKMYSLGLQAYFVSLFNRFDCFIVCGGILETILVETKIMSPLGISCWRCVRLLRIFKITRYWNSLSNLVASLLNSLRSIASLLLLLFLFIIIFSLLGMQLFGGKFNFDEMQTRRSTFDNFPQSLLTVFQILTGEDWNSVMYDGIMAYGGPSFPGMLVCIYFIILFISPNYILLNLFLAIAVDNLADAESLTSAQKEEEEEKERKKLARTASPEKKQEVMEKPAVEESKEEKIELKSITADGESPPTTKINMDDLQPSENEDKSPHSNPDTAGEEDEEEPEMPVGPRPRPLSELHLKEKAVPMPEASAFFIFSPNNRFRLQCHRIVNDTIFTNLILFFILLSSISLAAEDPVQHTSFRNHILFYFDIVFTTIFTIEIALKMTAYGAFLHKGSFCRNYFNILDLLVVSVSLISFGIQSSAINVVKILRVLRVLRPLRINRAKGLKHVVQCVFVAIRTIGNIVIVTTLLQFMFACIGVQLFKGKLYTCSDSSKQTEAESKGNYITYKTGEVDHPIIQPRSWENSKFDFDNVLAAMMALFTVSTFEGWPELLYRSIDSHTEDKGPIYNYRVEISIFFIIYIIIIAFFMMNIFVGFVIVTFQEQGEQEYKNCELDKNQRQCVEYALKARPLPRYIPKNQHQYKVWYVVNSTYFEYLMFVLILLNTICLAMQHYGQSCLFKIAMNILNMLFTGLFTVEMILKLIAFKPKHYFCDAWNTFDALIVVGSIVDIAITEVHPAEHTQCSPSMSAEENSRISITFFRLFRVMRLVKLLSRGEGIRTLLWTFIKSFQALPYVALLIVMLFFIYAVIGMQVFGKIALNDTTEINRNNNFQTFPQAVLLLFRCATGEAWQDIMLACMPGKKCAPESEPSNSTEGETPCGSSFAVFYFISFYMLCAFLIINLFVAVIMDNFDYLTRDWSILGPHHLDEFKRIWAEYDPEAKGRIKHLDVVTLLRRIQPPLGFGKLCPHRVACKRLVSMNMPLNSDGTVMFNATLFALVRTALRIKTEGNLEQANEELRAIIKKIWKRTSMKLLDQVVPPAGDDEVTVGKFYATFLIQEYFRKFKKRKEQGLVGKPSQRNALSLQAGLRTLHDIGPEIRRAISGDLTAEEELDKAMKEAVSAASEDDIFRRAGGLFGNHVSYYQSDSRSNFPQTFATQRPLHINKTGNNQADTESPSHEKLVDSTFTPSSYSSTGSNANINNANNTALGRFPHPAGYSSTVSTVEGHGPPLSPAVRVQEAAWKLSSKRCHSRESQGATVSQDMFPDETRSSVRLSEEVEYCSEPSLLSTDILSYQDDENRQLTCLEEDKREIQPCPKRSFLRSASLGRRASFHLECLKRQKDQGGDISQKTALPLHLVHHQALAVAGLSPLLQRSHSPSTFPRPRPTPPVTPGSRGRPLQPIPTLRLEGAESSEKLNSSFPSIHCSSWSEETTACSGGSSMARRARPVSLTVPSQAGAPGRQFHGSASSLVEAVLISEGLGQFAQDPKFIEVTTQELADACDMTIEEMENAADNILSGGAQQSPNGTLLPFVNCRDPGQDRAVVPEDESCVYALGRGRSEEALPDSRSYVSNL
T2 sequence (P54290 25-944 partner limits assumed): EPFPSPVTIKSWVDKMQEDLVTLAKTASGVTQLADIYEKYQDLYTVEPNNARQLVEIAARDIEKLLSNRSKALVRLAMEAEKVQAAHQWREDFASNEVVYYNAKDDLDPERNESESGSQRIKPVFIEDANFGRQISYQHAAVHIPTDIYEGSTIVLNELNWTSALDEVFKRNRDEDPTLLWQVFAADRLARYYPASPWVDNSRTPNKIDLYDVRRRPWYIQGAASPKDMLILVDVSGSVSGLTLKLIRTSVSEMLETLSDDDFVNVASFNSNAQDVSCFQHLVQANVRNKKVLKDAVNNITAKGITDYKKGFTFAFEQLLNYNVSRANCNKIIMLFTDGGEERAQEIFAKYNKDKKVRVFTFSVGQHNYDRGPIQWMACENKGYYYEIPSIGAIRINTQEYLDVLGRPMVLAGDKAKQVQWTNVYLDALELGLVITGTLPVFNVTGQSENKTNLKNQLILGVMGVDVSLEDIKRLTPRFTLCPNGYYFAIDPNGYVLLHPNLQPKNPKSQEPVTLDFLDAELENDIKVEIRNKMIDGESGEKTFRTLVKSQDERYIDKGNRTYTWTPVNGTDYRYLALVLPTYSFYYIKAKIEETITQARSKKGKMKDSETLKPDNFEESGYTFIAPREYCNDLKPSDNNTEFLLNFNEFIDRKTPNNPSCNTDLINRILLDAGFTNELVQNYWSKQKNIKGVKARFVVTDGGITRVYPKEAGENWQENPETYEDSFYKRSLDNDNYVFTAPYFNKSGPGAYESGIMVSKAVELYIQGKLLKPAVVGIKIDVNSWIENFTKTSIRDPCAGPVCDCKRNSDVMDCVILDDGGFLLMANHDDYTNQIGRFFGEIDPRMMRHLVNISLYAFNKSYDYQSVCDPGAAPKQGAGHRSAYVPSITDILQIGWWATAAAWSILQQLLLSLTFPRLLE
T2 sequence (P54290 945-1091 partner limits assumed): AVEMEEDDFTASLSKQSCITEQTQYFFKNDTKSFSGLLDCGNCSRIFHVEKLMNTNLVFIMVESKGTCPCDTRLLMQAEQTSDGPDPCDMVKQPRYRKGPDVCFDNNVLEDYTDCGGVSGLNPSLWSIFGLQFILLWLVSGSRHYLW
T2 sequence (P54283 whole entry partner): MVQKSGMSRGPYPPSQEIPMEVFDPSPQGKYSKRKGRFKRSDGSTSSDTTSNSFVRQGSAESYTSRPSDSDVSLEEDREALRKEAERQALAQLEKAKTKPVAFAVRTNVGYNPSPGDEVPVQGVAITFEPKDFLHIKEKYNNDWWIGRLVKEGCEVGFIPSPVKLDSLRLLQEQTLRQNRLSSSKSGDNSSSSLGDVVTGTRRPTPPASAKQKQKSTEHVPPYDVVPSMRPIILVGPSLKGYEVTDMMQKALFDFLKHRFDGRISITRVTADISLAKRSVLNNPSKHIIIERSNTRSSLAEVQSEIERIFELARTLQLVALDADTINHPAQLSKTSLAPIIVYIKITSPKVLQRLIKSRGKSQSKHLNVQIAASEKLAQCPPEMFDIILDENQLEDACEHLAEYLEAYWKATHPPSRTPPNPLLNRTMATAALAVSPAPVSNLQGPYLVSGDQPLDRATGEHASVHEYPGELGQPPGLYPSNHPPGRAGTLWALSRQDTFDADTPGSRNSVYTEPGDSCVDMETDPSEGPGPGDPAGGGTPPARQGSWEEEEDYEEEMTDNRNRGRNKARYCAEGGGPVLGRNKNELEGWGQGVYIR

Compound: O=C(NC1CC1)c1cccc(C2=CCN(Cc3ccc(OC(F)(F)F)cc3)CC2)n1 [Compound 9, 1′-(4-Trifluoromethoxybenzyl)-1′,2′,3′,6′-tetrahydro-[2,4′]bipyridinyl-6-carboxylic acid cyclopropylamide]
- IC50 [1]: 930 nM
- IC50 [2]: > 20000 nM

Compound: O=C(NC1CC1)c1cccc(C2=CC(=O)N(S(=O)(=O)c3cccc(C(F)(F)F)c3)CC2)n1 [Compound 45, 6′-Oxo-1′-(3-trifluoromethylbenzenesulfonyl)-1′,2′,3′,6′-tetrahydro-[2,4′]bipyridinyl-6-carboxylic acid cyclopropylamide]
- IC50 [1]: 20 nM
- IC50 [2]: > 20000 nM
